Experimental data from patent publication US9174980B2, “Heterocyclic compounds as inhibitors of leukotriene production” (Boehringer Ingelheim International GmbH, priority 2012, dated 2015).

How the values were obtained:
[1] = tested on: synthesis of LTB4 in human whole blood; assay: Human whole blood assay (calcimycin-stimulated LTB4 synthesis); format: cell-based; details: Homo sapiens; read-out: Human Whole Blood LTB4 Assay for FLAP (IC50 nM)
Description: Compounds are additionally tested in a human whole blood assay to determine their ability to inhibit the synthesis of LTB4 in a cellular system. Compounds are combined with heparinized human whole blood and incubated for 15 minutes at 37° C. Calcimycin (20 μM final, prepared in phosphate-buffered saline, pH 7.4) is then added and the mixture is incubated for another 30 minutes at 37° C. The samples are centrifuged for 5 min at low speed (1500×g) and the plasma layer is removed. Plasma LTB4 concentrations are then measured using an antibody-based homogenous time-resolved fluorescence method (CisBio, Bedford, Mass.).

[2] = target: T1, recombinant human FLAP protein (Homo sapiens, UniProt P20292); assay: FLAP binding assay (Scintillation Proximity Assay, displacement of [125I]L-691,831); details: read-out: Human FLAP SPA Binding (IC50 nM)
T1 construct: made in house; host or cells: Sf9 insect cells (membrane fraction, 100,000 x g pellet)
T1 sequence (P20292 1-161): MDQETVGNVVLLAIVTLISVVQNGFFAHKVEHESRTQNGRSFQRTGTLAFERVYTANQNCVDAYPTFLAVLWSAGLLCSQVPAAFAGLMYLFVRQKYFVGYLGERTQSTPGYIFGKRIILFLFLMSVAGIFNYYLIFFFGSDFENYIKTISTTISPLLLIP
Description: Compounds are assessed for the ability to bind to FLAP in a binding assay that measures compound-specific displacement of an iodinated (^125I) FLAP inhibitor via a Scintillation Proximity Assay format (adapted from S. Charleson et al., Mol. Pharmacol., 1992, 41, 873-879).
Cell pellets produced from sf9 insect cells expressing recombinant human FLAP protein are resuspended in buffer A [15 mM Tris-HCl (pH 7.5), 2 mM MgCl2, 0.3 mM EDTA, 1 mM PMSF]. The cells are lysed with a Dounce homogenizer and the material is centrifuged at 10,000×g for 10 minutes. The supernatant is then collected and centrifuged at 100,000×g for 60 minutes. To prepare membrane protein for an assay, an aliquot of the 100,000×g pellet is resuspended in 1 ml of buffer A, Dounce homogenized, and finally subjected to polytron mixing (30 seconds). Membrane protein (25 μl, 5 μg) is mixed with WGA SPA beads (Amersham) and stirred for 1 h. To an assay plate (Perkin Elmer FlexiPlate) is added 25 μl of test compound prepared in Binding buffer [100 mM Tris (pH 7.5), 140 mM NaCl, 5% glycerol, 2 mM EDTA, 0.5 mM TCEP, 0.05% Tween 20], 25 μl of [^125I]L-691,831 (an iodinated analog of MK-591, Charleson et al. Mol. Pharmacol., 41, 873-879, 1992) and finally 50 μl of the bead/protein mixture. (final concentrations: beads, 200 μg/well; protein, 5 μg/well; [^125I] probe, 0.08 nM/well (17 nCi/well). The plates are shaken for 2 h before reading on a Microbeta plate reader. Non-specific binding is determined by the addition of 10 μM cold L-691,831 compound.

Row | IC50 [1] [nM] | IC50 [2] [nM] | SMILES
1 | 250 | 3.4 | Cc1cc(CN(C)C(=O)c2cccc3c(C4(c5ccc(-c6cnc(N)nc6)cc5)CCC4)c[nH]c23)no1 [Example 17, 3-{1-[4-(2-aminopyrimidin-5-yl)phenyl]cyclobutyl}-N-methyl-N-[(5-methyl-1,2-oxazol-3-yl)methyl]-1H-indole-7-carboxamide]
2 | 680 | 4 | Cc1ccc(-c2cc(C3(c4ccc(-c5cnc(N)nc5)cc4)CCC3)[nH]n2)cn1 [Example 18, 5-(4-{1-[5-(6-methylpyridin-3-yl)-1H-pyrazol-3-yl]cyclobutyl}phenyl)pyrimidin-2-amine]
3 | > 5000 | 510 | Cc1ccc(-c2cc(C3(c4ccc(-c5cnc(N)nc5)cc4)CCC3)n(C)n2)cn1 [Example 19, 5-(4-{1-[1-methyl-3-(6-methylpyridin-3-yl)-1H-pyrazol-5-yl]cyclobutyl}phenyl)pyrimidin-2-amine]
4 | 430 | 5.1 | Cc1ccc(-c2cc(C3(c4ccc(-c5cnc(N)nc5)cc4)CCC3)nn2C)cn1 [Example 20, 5-(4-{1-[1-methyl-5-(6-methylpyridin-3-yl)-1H-pyrazol-3-yl]cyclobutyl}phenyl)pyrimidin-2-amine]
5 | 1600 | 38 | CC(C)C(C)(c1ccc(-c2cnc(N)nc2)cc1)c1nc(N2CCNCC2)no1 (stereo not shown) [Example 21, 5-[4-[1,2-dimethyl-1-(3-piperazin-1-yl-1,2,4-oxadiazol-5-yl)propyl]phenyl]pyrimidin-2-amine; formic acid]
6 | 710 | 44 | CC(C)C(C)(c1ccc(-c2cnc(N)nc2)nc1)c1nc(-c2cnn(C)c2)no1 (stereo not shown) [Example 22, 5-(5-{3-methyl-2-[3-(1-methyl-1H-pyrazol-4-yl)-1,2,4-oxadiazol-5-yl]butan-2-yl}pyridin-2-yl)pyrimidin-2-amine]
7 | > 5000 | 890 | COc1cncc(-c2ccc(C(c3ncc(Br)s3)C(C)C)cc2)c1 (stereo not shown) [Example 24, 5-bromo-2-[1-[4-(5-methoxy-3-pyridyl)phenyl]-2-methyl-propyl]thiazole]
8 | > 5000 | 36 | COc1cncc(-c2ccc(C(c3ncc(-c4ccc(CO)nc4)s3)C(C)C)cc2)c1 (stereo not shown) [Example 25, [5-(2-{1-[4-(5-methoxypyridin-3-yl)phenyl]-2-methylpropyl}-1,3-thiazol-5-yl)pyridin-2-yl]methanol]
9 | 39 | 4.6 | CN(C)CCn1cc(-c2cc([C@@](C)(c3ccc(-c4cnc(N)nc4)cc3)C3CC3)no2)cn1 [Example 26, 5-{4-[(1R)-1-cyclopropyl-1-(5-{1-[2-(dimethylamino)ethyl]-1H-pyrazol-4-yl}-1,2-oxazol-3-yl)ethyl]phenyl}pyrimidin-2-amine]
10 | 1800 | 20 | COc1cncc(-c2ccc(C(C)(c3cn(Cc4ccccn4)c4ccccc34)C(C)C)cc2)c1 (stereo not shown) [Example 27, 3-{2-[4-(5-methoxypyridin-3-yl)phenyl]-3-methylbutan-2-yl}-1-(pyridin-2-ylmethyl)-1H-indole]

Continued, compound first:

Row | SMILES | IC50 [1] [nM] | IC50 [2] [nM]
11 | Nc1ncc(-c2ccc(C3(c4c[nH]c5cc(C(=O)NC6CCS(=O)(=O)C6)ccc45)CCC3)cc2)cn1 (stereo not shown) [Example 1, 3-{1-[4-(2-aminopyrimidin-5-yl)phenyl]cyclobutyl}-N-(1,1-dioxidotetrahydrothiophen-3-yl)-1H-indole-6-carboxamide] | 1300 | 1.3
12 | CN(CCS(C)(=O)=O)C(=O)c1cccc2c(C3(c4ccc(-c5cnc(N)nc5)cc4)CCC3)c[nH]c12 [Example 2, 3-{1-[4-(2-aminopyrimidin-5-yl)phenyl]cyclobutyl}-N-methyl-N-[2-(methylsulfonyl)ethyl]-1H-indole-7-carboxamide] | 490 | 1.9
13 | CS(=O)(=O)CCNC(=O)c1cccc2c(C3(c4ccc(-c5cnc(N)nc5)cc4)CCC3)c[nH]c12 [Example 3, 3-{1-[4-(2-aminopyrimidin-5-yl)phenyl]cyclobutyl}-N-[2-(methylsulfonyl)ethyl]-1H-indole-7-carboxamide] | 490 | 1.4
14 | Nc1ncc(-c2ccc(C3(c4c[nH]c5c(C(=O)NCCS(N)(=O)=O)cccc45)CCC3)cc2)cn1 [Example 4, 3-{1-[4-(2-aminopyrimidin-5-yl)phenyl]cyclobutyl}-N-(2-sulfamoylethyl)-1H-indole-7-carboxamide] | 2800 | 1.2
15 | Nc1ncc(-c2ccc(C3(c4c[nH]c5c(C(=O)NC6CCS(=O)(=O)C6)cccc45)CCC3)cc2)cn1 (stereo not shown) [Example 5, 3-{1-[4-(2-aminopyrimidin-5-yl)phenyl]cyclobutyl}-N-(1,1-dioxidotetrahydrothiophen-3-yl)-1H-indole-7-carboxamide] | 220 | 0.72
16 | CNC(=O)c1cccc2c(C3(c4ccc(-c5cnc(N)nc5)cc4)CCC3)c[nH]c12 [Example 6, 3-[1-[4-(2-aminopyrimidin-5-yl)phenyl]cyclobutyl]-N-methyl-1H-indole-7-carboxamide] | 29 | 1.5
17 | CN(C)C(=O)c1cccc2c(C3(c4ccc(-c5cnc(N)nc5)cc4)CCC3)c[nH]c12 [Example 7, 3-{1-[4-(2-aminopyrimidin-5-yl)phenyl]cyclobutyl}-N,N-dimethyl-1H-indole-7-carboxamide] | 210 | 2.1
18 | Cc1ccc(-c2coc(C3(c4ccc(-c5cnc(N)nc5)cc4)CCC3)n2)cn1 [Example 8, 5-(4-{1-[4-(6-methylpyridin-3-yl)-1,3-oxazol-2-yl]cyclobutyl}phenyl)pyrimidin-2-amine] | 410 | 2.8
19 | Cc1nc(CNC(=O)c2cccc3c(C4(c5ccc(-c6cnc(N)nc6)cc5)CCC4)c[nH]c23)no1 [Example 9, 3-{1-[4-(2-aminopyrimidin-5-yl)phenyl]cyclobutyl}-N-[(5-methyl-1,2,4-oxadiazol-3-yl)methyl]-1H-indole-7-carboxamide] | 27 | 2.2
20 | CCc1nc(CN(C)C(=O)c2cccc3c(C4(c5ccc(-c6cnc(N)nc6)cc5)CCC4)c[nH]c23)no1 [Example 10, 3-{1-[4-(2-aminopyrimidin-5-yl)phenyl]cyclobutyl}-N-[(5-ethyl-1,2,4-oxadiazol-3-yl)methyl]-N-methyl-1H-indole-7-carboxamide] | 340 | 2.4
21 | Cc1nnc(CN(C)C(=O)c2cccc3c(C4(c5ccc(-c6cnc(N)nc6)cc5)CCC4)c[nH]c23)o1 [Example 11, 3-{1-[4-(2-aminopyrimidin-5-yl)phenyl]cyclobutyl}-N-methyl-N-[(5-methyl-1,3,4-oxadiazol-2-yl)methyl]-1H-indole-7-carboxamide] | 230 | 3.3
22 | CCc1noc(CN(CC)C(=O)c2cccc3c(C4(c5ccc(-c6cnc(N)nc6)cc5)CCC4)c[nH]c23)n1 [Example 12, 3-{1-[4-(2-aminopyrimidin-5-yl)phenyl]cyclobutyl}-N-ethyl-N-[(3-ethyl-1,2,4-oxadiazol-5-yl)methyl]-1H-indole-7-carboxamide] | 680 | 2.7
23 | Cc1cc(CN(C)C(=O)c2cccc3c(C4(c5ccc(-c6cnc(N)nc6)cc5)CCC4)c[nH]c23)[nH]n1 [Example 13, 3-{1-[4-(2-aminopyrimidin-5-yl)phenyl]cyclobutyl}-N-methyl-N-[(3-methyl-1H-pyrazol-5-yl)methyl]-1H-indole-7-carboxamide] | 320 | 1.4
24 | Cc1ccc(-c2cnc(C3(c4ccc(-c5cnc(N)nc5)cc4)CCC3)[nH]2)cn1 [Example 14, 5-(4-{1-[5-(6-methylpyridin-3-yl)-1H-imidazol-2-yl]cyclobutyl}phenyl)pyrimidin-2-amine] | > 5000 | 30
25 | Cc1ccc(-c2cnc(C3(c4ccc(-c5cnc(N)nc5)cc4)CCC3)s2)cn1 [Example 15, 5-(4-{1-[5-(6-methylpyridin-3-yl)-1,3-thiazol-2-yl]cyclobutyl}phenyl)pyrimidin-2-amine] | 220 | 1.8
26 | Cc1ccc(-c2cnc(C3(c4ccc(-c5cnc(N)nc5)cc4)CCC3)o2)cn1 [Example 16, 5-(4-{1-[5-(6-methylpyridin-3-yl)-1,3-oxazol-2-yl]cyclobutyl}phenyl)pyrimidin-2-amine] | 1400 | 7.1
